Biological target: T1, Human plasma kallikrein (Homo sapiens, UniProt P03952)
T1 construct: yields a heavy chain (371 amino acids) and a light chain (248 amino acids); purchased Enzyme Research Laboratories
Experiment: Kallikrein Assay (fluorogenic substrate hydrolysis, AFC release)
Format: biochemical
Conditions: purified Human plasma kallikrein 0.5 nM; substrate Acetyl-K—P—R-AFC 100 mM; 50 mM HEPES pH 7.4
Summary of the method: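 Purified human plasma kallikrein (0.5 nM final) with Acetyl-K-P-R-AFC substrate (final ≤0.2 Km) in 50 mM HEPES pH 7.4, 150 mM NaCl, 5 mM CaCl2, 0.1% PEG 8000, after enzyme–inhibitor equilibration; room temperature or 37° C. AFC fluorescence (405 Ex/510 Em nm) under linear conditions; IC50 by four-parameter fit, Ki via Cheng-Prusoff.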

T1 sequence (P03952 391-638 limits assumed): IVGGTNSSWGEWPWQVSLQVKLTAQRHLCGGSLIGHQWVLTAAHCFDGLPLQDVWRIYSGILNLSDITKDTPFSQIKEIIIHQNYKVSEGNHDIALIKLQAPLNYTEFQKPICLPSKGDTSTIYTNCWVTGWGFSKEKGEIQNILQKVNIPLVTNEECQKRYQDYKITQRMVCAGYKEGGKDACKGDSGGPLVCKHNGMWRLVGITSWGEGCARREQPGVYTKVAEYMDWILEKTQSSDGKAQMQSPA
T1 sequence (P03952 20-390 partner limits assumed): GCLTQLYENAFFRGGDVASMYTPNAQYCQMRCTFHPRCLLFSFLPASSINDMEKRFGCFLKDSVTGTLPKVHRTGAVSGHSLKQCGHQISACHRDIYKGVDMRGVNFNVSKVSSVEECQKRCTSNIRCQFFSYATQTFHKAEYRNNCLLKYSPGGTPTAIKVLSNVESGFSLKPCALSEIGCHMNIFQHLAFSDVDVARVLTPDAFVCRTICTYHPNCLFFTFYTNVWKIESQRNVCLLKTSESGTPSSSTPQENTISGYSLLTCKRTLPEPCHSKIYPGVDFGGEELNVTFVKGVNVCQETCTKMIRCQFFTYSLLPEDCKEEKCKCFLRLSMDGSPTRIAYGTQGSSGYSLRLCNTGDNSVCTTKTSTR

| IC50 [nM] | Compound |
| --- | --- |
| 0.6 | Cc1nc(N2C[C@H]3C[C@H]3C2=O)ncc1C(C)n1cc(C(=O)NC2CC(C)(c3cc(Cl)ccc3C#N)C2)nn1 (single isomer, unassigned) [Example 82, N-((cis)-3-(5-chloro-2-cyanophenyl)-3-methylcyclobutyl)-1-((R or S)-1-(4-methyl-2-((1R,5S)-2-oxo-3-azabicyclo[3.1.0]hexan-3-yl)pyrimidin-5-yl)ethyl)-1H-1,2,3-triazole-4-carboxamide] |
| 29.6 | N#Cc1ccc(Cl)cc1[C@H]1C[C@@H](NC(=O)c2cn(C(CO)c3ccc(N4C[C@H]5C[C@H]5C4=O)nc3)nn2)C1 (single isomer, unassigned) [Example 154] |
| 7.7 | COc1cc(N2C[C@H]3C[C@H]3C2=O)ncc1[C@@H](C)n1cc(C(=O)N[C@H]2C[C@@H](c3cc(Cl)ccc3C#N)C2)cn1 (single isomer, unassigned) [Example 12] |
| 3.9 | Cc1cc(N2C[C@H]3C[C@H]3C2=O)ncc1C(C)n1cc(C(=O)N[C@H]2C[C@@H](c3cc(Cl)ccn3)C2)nn1 (single isomer, unassigned) [Example 74, N-((cis)-3-(4-chloropyridin-2-yl)cyclobutyl)-1-((S or R)-1-(4-methyl-6-((1R,5S)-2-oxo-3-azabicyclo[3.1.0]hexan-3-yl)pyridin-3-yl)ethyl)-1H-1,2,3-triazole-4-carboxamide] |
| 3.7 | Cc1c([C@H](C)n2cc(C(=O)N[C@H]3C[C@@H](c4cc(Cl)ccc4C#N)C3)nn2)nc(N2C[C@H]3C[C@H]3C2=O)n1C (single isomer, unassigned) [Example 162] |
| 2790 | Cc1cc(N2C[C@H]3C[C@H]3C2=O)ncc1C(C)n1cc(C(=O)N[C@H]2C[C@@H](c3cc(Cl)ccc3OC(F)F)C2)nn1 (single isomer, unassigned) [Example 69, N-((cis)-3-(5-chloro-2-(difluoromethoxy)phenyl)cyclobutyl)-1-((R or S)-1-(4-methyl-6-((1R,5S)-2-oxo-3-azabicyclo[3.1.0]hexan-3-yl)pyridin-3-yl)ethyl)-1H-1,2,3-triazole-4-carboxamide] |
| 702 | Cc1ccc(C#N)c([C@H]2C[C@@H](NC(=O)c3cn(C(C)c4nnc(N5C[C@H]6C[C@H]6C5=O)c(C)c4C)nn3)C2)n1 (single isomer, unassigned) [Example 127, N-((cis)-3-(3-cyano-6-methylpyridin-2-yl)cyclobutyl)-1-((R or S)-1-(4,5-dimethyl-6-((1R,5S)-2-oxo-3-azabicyclo[3.1.0]hexan-3-yl)pyridazin-3-yl)ethyl)-1H-1,2,3-triazole-4-carboxamide] |
| 839 | Cc1c(C(C)n2cc(C(=O)NC3CC(c4cccc(Cl)c4)C3O)nn2)nnc(N2C[C@H]3C[C@H]3C2=O)c1C (single isomer, unassigned) [Example 129, N-((1R,2R,3R or 1S,2S,3S))-3-(3-chlorophenyl)-2-hydroxycyclobutyl)-1-((R or S)-1-(4,5-dimethyl-6-((1R,5S)-2-oxo-3-azabicyclo[3.1.0]hexan-3-yl)pyridazin-3-yl)ethyl)-1H-1,2,3-triazole-4-carboxamide] |
| 1.1 | Cc1cc(N2C[C@H]3C[C@H]3C2=O)ncc1Cn1cc(C(=O)N[C@H]2C[C@@H](c3cc(Cl)ccc3C#N)C2)c(C(F)F)n1 [Example 38, N-((cis)-3-(5-chloro-2-cyanophenyl)cyclobutyl)-3-(difluoromethyl)-1-((4-methyl-6-((1R,5S)-2-oxo-3-azabicyclo[3.1.0]hexan-3-yl)pyridin-3-yl)methyl)-1H-pyrazole-4-carboxamide] |
| 5 | CC(c1ccc(N2C[C@H]3C[C@H]3C2=O)nc1)n1cc(C(=O)N[C@H]2C[C@@H](c3cc(Cl)ccc3C#N)C2)nn1 (single isomer, unassigned) [Example 58, N-((cis)-3-(5-chloro-2-cyanophenyl)cyclobutyl)-1-((S or R)-1-(6-((1R,5S)-2-oxo-3-azabicyclo[3.1.0]hexan-3-yl)pyridin-3-yl)ethyl)-1H-1,2,3-triazole-4-carboxamide] |
| 0.3 | Cc1cc(N2C[C@H]3C[C@H]3C2=O)ncc1C(C)n1cc(C(=O)N[C@H]2C[C@@H](c3cc(Cl)ccc3C#N)C2)c(C)n1 (single isomer, unassigned) [Example 19, N-((cis)-3-(5-chloro-2-cyanophenyl)cyclobutyl)-3-methyl-1-((R or S)-1-(4-methyl-6-((1R,5S)-2-oxo-3-azabicyclo[3.1.0]hexan-3-yl)pyridin-3-yl)ethyl)-1H-pyrazole-4-carboxamide] |
| 3.7 | CC(c1ncc(N2C[C@H]3C[C@H]3C2=O)cc1F)n1cc(C(=O)N[C@H]2C[C@@H](c3cc(Cl)ccc3C#N)C2)cn1 (single isomer, unassigned) [Example 26, N-((cis)-3-(5-chloro-2-cyanophenyl)cyclobutyl)-1-((R or S)-1-(3-fluoro-5-((1R,5S)-2-oxo-3-azabicyclo[3.1.0]hexan-3-yl)pyridin-2-yl)ethyl)-1H-pyrazole-4-carboxamide] |
| 1 | Cc1cc(N2C[C@H]3C[C@H]3C2=O)ncc1[C@H](C)n1cc(C(=O)N[C@H]2C[C@@](C)(c3cc(Cl)ccc3C(N)=O)C2)nn1 [Example 144, N-((cis)-3-(2-carbamoyl-5-chlorophenyl)-3-methylcyclobutyl)-1-((S)-1-(4-methyl-6-((1R,5S)-2-oxo-3-azabicyclo[3.1.0]hexan-3-yl)pyridin-3-yl)ethyl)-1H-1,2,3-triazole-4-carboxamide] |
| 2.4 | Cc1ccc(C#N)c([C@H]2C[C@@H](NC(=O)c3cnn(C(C)c4cnc(N5C[C@H]6C[C@H]6C5=O)c(C)n4)c3)C2)n1 (single isomer, unassigned) [Example 51, N-((cis)-3-(3-cyano-6-methylpyridin-2-yl)cyclobutyl)-1-((R or S)-1-(6-methyl-5-((1R,5S)-2-oxo-3-azabicyclo[3.1.0]hexan-3-yl)pyrazin-2-yl)ethyl)-1H-pyrazole-4-carboxamide] |
| 3.9 | COc1cc(C(C)n2cc(C(=O)N[C@H]3C[C@@H](c4cc(C)ccc4C#N)C3)cn2)cnc1N1C[C@H]2C[C@H]2C1=O (single isomer, unassigned) [Example 23, N-((cis)-3-(2-cyano-5-methylphenyl)cyclobutyl)-1-((R or S)-1-(5-methoxy-6-((1R,5S)-2-oxo-3-azabicyclo[3.1.0]hexan-3-yl)pyridin-3-yl)ethyl)-1H-pyrazole-4-carboxamide] |
| 153 | Cc1cc(N2C[C@H]3C[C@H]3C2=O)cnc1C(C)n1cc(C(=O)N[C@H]2C[C@@H](c3cc(Cl)ccc3C#N)C2)nn1 (single isomer, unassigned) [Example 90, N-((cis)-3-(5-chloro-2-cyanophenyl)cyclobutyl)-1-((R or S)-1-(3-methyl-5-((1R,5S)-2-oxo-3-azabicyclo[3.1.0]hexan-3-yl)pyridin-2-yl)ethyl)-1H-1,2,3-triazole-4-carboxamide] |
| 0.6 | COc1cc(C(C)n2cc(C(=O)N[C@H]3C[C@@](C)(c4cc(Cl)ccc4C#N)C3)nn2)cnc1N1C[C@H]2C[C@H]2C1=O (single isomer, unassigned) [Example 105, N-((cis)-3-(5-chloro-2-cyanophenyl)-3-methylcyclobutyl)-1-((R or S)-1-(5-methoxy-6-((1R,5S)-2-oxo-3-azabicyclo[3.1.0]hexan-3-yl)pyridin-3-yl)ethyl)-1H-1,2,3-triazole-4-carboxamide] |
| 2.7 | Cc1ccc(C#N)c([C@H]2C[C@@H](NC(=O)c3cnn(C(C)c4cnc(N5C[C@H]6C[C@H]6C5=O)c(C)c4C)c3)C2)c1 (single isomer, unassigned) [Example 46, N-((cis)-3-(2-cyano-5-methylphenyl)cyclobutyl)-1-((S or R)-1-(4,5-dimethyl-6-((1R,5S)-2-oxo-3-azabicyclo[3.1.0]hexan-3-yl)pyridin-3-yl)ethyl)-1H-pyrazole-4-carboxamide] |
| 1 | COc1cc(C(C)n2cc(C(=O)N[C@H]3C[C@@H](c4cc(Cl)ccc4C#N)C3)cn2)cnc1N1C[C@H]2C[C@H]2C1=O (single isomer, unassigned) [Example 13, N-((cis)-3-(5-chloro-2-cyanophenyl)cyclobutyl)-1-((R or S)-1-(5-methoxy-6-((1R,5S)-2-oxo-3-azabicyclo[3.1.0]hexan-3-yl)pyridin-3-yl)ethyl)-1H-pyrazole-4-carboxamide] |
| 11.1 | Cc1cc(N2C[C@H]3C[C@H]3C2=O)ncc1C(C)n1cc(C(=O)NC2CC(c3cc(Cl)ccc3C#N)C2)c([C@H](C)O)n1 (stereo in doubt) [Example 172, N-((cis)-3-(5-chloro-2-cyanophenyl)cyclobutyl)-3-((S)-1-hydroxyethyl)-1-((S)-1-(4-methyl-6-((1R,5S)-2-oxo-3-azabicyclo[3.1.0]hexan-3-yl)pyridin-3-yl)ethyl)-1H-pyrazole-4-carboxamide] |
| 38.1 | CC(c1ncc(N2C[C@H]3C[C@H]3C2=O)cc1F)n1cc(C(=O)N[C@H]2C[C@@H](c3cc(Cl)ccc3C#N)C2)nn1 (single isomer, unassigned) [Example 92, N-((cis)-3-(5-chloro-2-cyanophenyl)cyclobutyl)-1-((R or S)-1-(3-fluoro-5-((1R,5S)-2-oxo-3-azabicyclo[3.1.0]hexan-3-yl)pyridin-2-yl)ethyl)-1H-1,2,3-triazole-4-carboxamide] |
| 0.6 | Cc1ccc(C#N)c([C@H]2C[C@@H](NC(=O)c3cn(C(C)c4cnc(N5C[C@H]6C[C@H]6C5=O)c(F)c4C)nn3)C2)c1 (single isomer, unassigned) [Example 120, N-((cis)-3-(2-cyano-5-methylphenyl)cyclobutyl)-1-((S or R)-1-(5-fluoro-4-methyl-6-((1R,5S)-2-oxo-3-azabicyclo[3.1.0]hexan-3-yl)pyridin-3-yl)ethyl)-1H-1,2,3-triazole-4-carboxamide] |

Source: patent US12528786B2, “Plasma kallikrein inhibitors” (Merck Sharp & Dohme LLC, priority 2020, dated 2026)
